“And” between values parts separate entries of the source, which are not always exact repeats. Identical values can stand only once.
Target: 5-hydroxytryptamine receptor 4 (Rattus norvegicus, UniProt Q62758)
Sequence (Q62758 whole entry): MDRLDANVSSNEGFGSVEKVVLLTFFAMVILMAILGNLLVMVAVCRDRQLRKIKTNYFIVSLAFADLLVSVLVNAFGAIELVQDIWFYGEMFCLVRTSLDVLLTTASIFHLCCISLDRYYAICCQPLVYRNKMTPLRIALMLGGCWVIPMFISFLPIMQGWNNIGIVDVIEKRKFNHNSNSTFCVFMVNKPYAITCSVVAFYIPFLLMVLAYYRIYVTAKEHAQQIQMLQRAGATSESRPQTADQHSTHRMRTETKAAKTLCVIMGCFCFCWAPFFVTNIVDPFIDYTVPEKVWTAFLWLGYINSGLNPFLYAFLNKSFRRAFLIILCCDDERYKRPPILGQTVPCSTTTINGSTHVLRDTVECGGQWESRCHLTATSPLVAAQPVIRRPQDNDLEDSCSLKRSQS

| SMILES | Ki |
| --- | --- |
| CN1C2CCC1CC(OC(=O)c1c[nH]c3ccccc13)C2 (stereo not drawn) | 100 nM and 251 nM and 501 nM |
| CC(C)n1c(=O)n(C(=O)NC2CC3CCC(C2)N3C)c2ccccc21 (stereo not drawn) [BIMU 8] | 15.8 nM and 50.1 nM and 79.4 nM |
| CCCCN1CCC(COC(=O)c2cc(Cl)c(N)c3c2OCCO3)CC1 [CAS_121881] | 1.25 nM and 0.39 nM and 0.31 nM |
| COc1ccc2[nH]c(=O)n(C(=O)OC3CC4CCC(C3)N4C)c2c1 (stereo not drawn) [DAU 6285] | 79.4 nM and 63.1 nM and 158 nM |
| Cn1cc(C(=O)OCC2CCN(CCNS(C)(=O)=O)CC2)c2ccccc21 [GR 113808] | 3.16 nM and 1.99 nM and 3.98 nM |
| COc1cc(N)c(Cl)cc1C(=O)OCC1CCN(CCc2ccc3c(c2)OCCO3)CC1 [RS 57639] | 2.51 nM and 1.25 nM |
| CCN(CC)CCOC(=O)c1cc(Cl)c(N)cc1OC [SDZ-205557] | 19.9 nM and 25.1 nM |
| NCCc1c[nH]c2ccc(C(N)=O)cc12 [[3H]-5-carboxamidotryptamine] | 3160 nM and 5010 nM |

Reference: BindingDB's records for doi:10.1016/s0028-3908(97)00039-7 (Roche Bioscience, 1997)
